In patent US20240239806A1, “COMPOUNDS, COMPOSITIONS AND METHODS OF TREATING DISORDERS” (Chengdu Anticancer Bioscience, Ltd., priority 2021, published 2024):
Read-outs that look alike come from different tables or passages of the source.

Assays:
Assay type in all cases: cell-based
RPEMYC^H2B-GFP cells = assay: Phenotypic screening assay (mitotic arrest, polyploidy); conditions: 1 nM to 30 μM; for IC50: read-out: Proliferative arrest (>50%)
Method in brief: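 RPE cells expressing MYC and H2B-EGFP treated with compound at 1 nM–30 μM; mitotic index scored at 24 h and polyploidy (DNA content) at 48 h by automated imaging, with reads at 24, 48 or 72 h. Hits show transient mitotic arrest followed by polyploid accumulation.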

HCT116 [1] = assay: MECP in cancer cell line; conditions: Homo sapiens, HCT-116
Method in brief: (§1)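 Cells grown in DMEM with 5% FBS at 37° C, 5% CO2, then treated at 1 nM to 30 μM. Imaging at 24, 48 or 72 h scored mitotic arrest or DNA-content change; hits show transient mitotic-index rise at 24 h and polyploid accumulation at 48 h; values binned A (≤1.0 μM) to D (>30.0 μM).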

Hela [2] = assay: MECP in cancer cell line; conditions: Homo sapiens
Method in brief: as §1

MDA-MB-231 [3] = assay: MECP in cancer cell line; conditions: Homo sapiens
Method in brief: as §1

NCI-H460 [4] = assay: MECP in cancer cell line; conditions: Homo sapiens
Method in brief: as §1

NCI-H596 [5] = assay: MECP in cancer cell line; conditions: Homo sapiens
Method in brief: as §1

T2 HCC [6] = assay: MECP in cancer cell line; conditions: Mus musculus
Method in brief: as §1

NCI-H23 [7] = assay: MECP in cancer cell line; conditions: Homo sapiens
Method in brief: as §1

HCT116 [8] = assay: MTT assay of cellular proliferation; conditions: Homo sapiens, HCT-116, 50% inhibition of cellular proliferation
Method in brief: (§2)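 Proliferation is scored by MTT conversion, with formazan absorbance at 570 nm proportional to live cell number. Cultures in 5% FBS DMEM at 37 °C are treated across 1 nM-30 μM, and the half-inhibitory concentration is reported as EC50.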

Hela [9] = assay: MTT assay of cellular proliferation; conditions: Homo sapiens, 50% inhibition of cellular proliferation
Method in brief: as §2

MDA-MB-231 [10] = assay: MTT assay of cellular proliferation; conditions: Homo sapiens; MDA-MB-231, MTT, 50% inhibition of cellular proliferation
Method in brief: as §2

NCI-H23 [11] = assay: MTT assay of cellular proliferation; conditions: Homo sapiens, 50% inhibition of cellular proliferation
Method in brief: as §2

NCI-H460 [12] = assay: MTT assay of cellular proliferation; conditions: Homo sapiens, 50% inhibition of cellular proliferation
Method in brief: as §2

NCI-H596 [13] = assay: MTT assay of cellular proliferation; conditions: Homo sapiens, 50% inhibition of cellular proliferation
Method in brief: as §2

T2 HCC [14] = assay: MTT assay of cellular proliferation; conditions: Mus musculus, 50% inhibition of cellular proliferation
Method in brief: as §2

T98G = assay: MTT assay of cellular proliferation; conditions: Homo sapiens, 50% inhibition of cellular proliferation
Method in brief: as §2

[15] = read-out: Min. Effective conc. for Polyploidy (≥5%)

Molecule `COC(=O)c1cc(Oc2ncnc3cc[nH]c23)cc(C(=O)OC)c1` [Compound 36, dimethyl 5-((5H-pyrrolo[3,2-d]pyrimidin-4-yl)oxy)isophthalate] has a minimal effective concentration (RPEMYC^H2B-GFP cells; [15]) of 0.001 to 1 µM, a minimal effective concentration (RPEMYC^H2B-GFP cells; read-out: Mitotic Arrest (≥5%)) of 0.001 to 1 µM and an IC50 (RPEMYC^H2B-GFP cells) of 1 to 1000 nM. For the same molecule, the minimal effective concentration (HCT116 [1]) was 0.001 to 1 µM, the minimal effective concentration (Hela [2]) was 0.001 to 1 µM and the minimal effective concentration (MDA-MB-231 [3]) was 0.001 to 1 µM. It also gave a minimal effective concentration (NCI-H460 [4]) of 1 to 10 µM, a minimal effective concentration (NCI-H596 [5]) of 0.001 to 1 µM and a minimal effective concentration (T2 HCC [6]) of 0.001 to 1 µM. The minimal effective concentration (NCI-H23 [7]) was 0.001 to 1 µM, the EC50 (HCT116 [8]) was 1 to 1000 nM and the EC50 (Hela [9]) was 1 to 1000 nM. The EC50 (MDA-MB-231 [10]) was 1 to 1000 nM, the EC50 (NCI-H23 [11]) was 1 to 1000 nM and the EC50 (NCI-H460 [12]) was over 30000 nM. It also gave an EC50 (NCI-H596 [13]) of 1 to 1000 nM, an EC50 (T2 HCC [14]) of 1 to 1000 nM and an EC50 (T98G) of 1 to 1000 nM.
With `COc1cc(OC)cc(Oc2ccnc3ccccc23)c1` [Compound 7, 4-(3,5-dimethoxyphenoxy)quinoline] the minimal effective concentration (RPEMYC^H2B-GFP cells; [15]) was 0.001 to 1 µM, the minimal effective concentration (RPEMYC^H2B-GFP cells; read-out: Mitotic Arrest (≥5%)) was 0.001 to 1 µM and the IC50 (RPEMYC^H2B-GFP cells) was 1 to 1000 nM. The minimal effective concentration (HCT116 [1]) was 0.001 to 1 µM, the minimal effective concentration (Hela [2]) was 0.001 to 1 µM and the minimal effective concentration (MDA-MB-231 [3]) was 0.001 to 1 µM. For the same molecule, the minimal effective concentration (NCI-H460 [4]) was 1 to 10 µM, the minimal effective concentration (NCI-H596 [5]) was 0.001 to 1 µM and the minimal effective concentration (T2 HCC [6]) was 1 to 10 µM. For the same molecule, the minimal effective concentration (NCI-H23 [7]) was 0.001 to 1 µM, the EC50 (HCT116 [8]) was 1 to 1000 nM and the EC50 (Hela [9]) was 1000 to 10000 nM. For the same molecule, the EC50 (MDA-MB-231 [10]) was 1 to 1000 nM, the EC50 (NCI-H23 [11]) was 1 to 1000 nM and the EC50 (NCI-H460 [12]) was 1000 to 10000 nM. It also gave an EC50 (NCI-H596 [13]) of 1000 to 10000 nM, an EC50 (T2 HCC [14]) of 1000 to 10000 nM and an EC50 (T98G) of 1 to 1000 nM.
Work on `COC(=O)c1cc(OC)cc(Oc2ncnc3ccsc23)c1` [Compound 37, methyl 3-methoxy-5-(thieno[3,2-d]pyrimidin-4-yloxy)benzoate] yielded a minimal effective concentration (RPEMYC^H2B-GFP cells; [15]) of 0.001 to 1 µM, a minimal effective concentration (RPEMYC^H2B-GFP cells; read-out: Mitotic Arrest (≥5%)) of 0.001 to 1 µM and an IC50 (RPEMYC^H2B-GFP cells) of 1 to 1000 nM. For the same molecule, the minimal effective concentration (HCT116 [1]) was 0.001 to 1 µM, the minimal effective concentration (Hela [2]) was 0.001 to 1 µM and the minimal effective concentration (MDA-MB-231 [3]) was 0.001 to 1 µM. The minimal effective concentration (NCI-H460 [4]) was 1 to 10 µM, the minimal effective concentration (NCI-H596 [5]) was 0.001 to 1 µM and the minimal effective concentration (T2 HCC [6]) was 0.001 to 1 µM. For the same molecule, the minimal effective concentration (NCI-H23 [7]) was 0.001 to 1 µM, the EC50 (HCT116 [8]) was 1 to 1000 nM and the EC50 (Hela [9]) was 1 to 1000 nM. It also gave an EC50 (MDA-MB-231 [10]) of 1 to 1000 nM, an EC50 (NCI-H23 [11]) of 1 to 1000 nM and an EC50 (NCI-H460 [12]) of over 30000 nM. For the same molecule, the EC50 (NCI-H596 [13]) was 1 to 1000 nM, the EC50 (T2 HCC [14]) was 1 to 1000 nM and the EC50 (T98G) was over 30000 nM.
`COC(=O)c1cc(OC)cc(Oc2ncnc3cc[nH]c23)c1` [Compound 34, methyl 3-((5H-pyrrolo[3,2-d]pyrimidin-4-yl)oxy)-5-methoxybenzoate] showed a minimal effective concentration (RPEMYC^H2B-GFP cells; [15]) of 0.001 to 1 µM, a minimal effective concentration (RPEMYC^H2B-GFP cells; read-out: Mitotic Arrest (≥5%)) of 0.001 to 1 µM and an IC50 (RPEMYC^H2B-GFP cells) of 1 to 1000 nM. The minimal effective concentration (HCT116 [1]) was 0.001 to 1 µM, the minimal effective concentration (Hela [2]) was 0.001 to 1 µM and the minimal effective concentration (MDA-MB-231 [3]) was 0.001 to 1 µM. It also gave a minimal effective concentration (NCI-H460 [4]) of 1 to 10 µM, a minimal effective concentration (NCI-H596 [5]) of 0.001 to 1 µM and a minimal effective concentration (T2 HCC [6]) of 0.001 to 1 µM. The minimal effective concentration (NCI-H23 [7]) was 0.001 to 1 µM, the EC50 (HCT116 [8]) was 1 to 1000 nM and the EC50 (Hela [9]) was 1 to 1000 nM. The EC50 (MDA-MB-231 [10]) was 1 to 1000 nM, the EC50 (NCI-H23 [11]) was 1 to 1000 nM and the EC50 (NCI-H460 [12]) was over 30000 nM. The EC50 (NCI-H596 [13]) was 1 to 1000 nM, the EC50 (T2 HCC [14]) was 1 to 1000 nM and the EC50 (T98G) was over 30000 nM.
With `COC(=O)c1cc(Oc2ncnc3ccsc23)cc(C(=O)OC)c1` [Compound 39, dimethyl 5-(thieno[3,2-d]pyrimidin-4-yloxy)isophthalate] the “Min. Effective conc. for Polyploidy (≥5%)” value (RPEMYC^H2B-GFP cells) was “B (a value greater than 1.00 μM and less than or equal to 10.0 μM)”, the “Mitotic Arrest (≥5%)” value (RPEMYC^H2B-GFP cells) was “B (a value greater than 1.00 μM and less than or equal to 10.0 μM)” and the “Proliferative arrest (>50%)” value (RPEMYC^H2B-GFP cells) was “B (a value greater than 1.00 μM and less than or equal to 10.0 μM)”. For the same molecule, the “Along with Cell Death” value (RPEMYC^H2B-GFP cells; listed as 33) was “B (a value greater than 1.00 μM and less than or equal to 10.0 μM)”, the minimal effective concentration (RPEMYC^H2B-GFP cells; [15]) was 0.001 to 1 µM and the minimal effective concentration (RPEMYC^H2B-GFP cells; read-out: Mitotic Arrest (≥5%)) was 0.001 to 1 µM. The IC50 (RPEMYC^H2B-GFP cells) was 1 to 1000 nM, the minimal effective concentration (HCT116 [1]) was 0.001 to 1 µM and the minimal effective concentration (Hela [2]) was 0.001 to 1 µM. For the same molecule, the minimal effective concentration (MDA-MB-231 [3]) was 0.001 to 1 µM, the minimal effective concentration (NCI-H460 [4]) was 1 to 10 µM and the minimal effective concentration (NCI-H596 [5]) was 0.001 to 1 µM. It also gave a minimal effective concentration (T2 HCC [6]) of 0.001 to 1 µM, a minimal effective concentration (NCI-H23 [7]) of 0.001 to 1 µM and an EC50 (HCT116 [8]) of 1 to 1000 nM. It also gave an EC50 (Hela [9]) of 1 to 1000 nM, an EC50 (MDA-MB-231 [10]) of 1 to 1000 nM and an EC50 (NCI-H23 [11]) of 1 to 1000 nM. For the same molecule, the EC50 (NCI-H460 [12]) was over 30000 nM, the EC50 (NCI-H596 [13]) was over 30000 nM and the EC50 (T2 HCC [14]) was 1 to 1000 nM. The EC50 (T98G) was 1 to 1000 nM.
`COC(=O)c1cc(OC)cc(Oc2ncnc3cc(OC)c(OC)cc23)c1` [Compound 29] gave a minimal effective concentration (RPEMYC^H2B-GFP cells; [15]) of 0.001 to 1 µM, a minimal effective concentration (RPEMYC^H2B-GFP cells; read-out: Mitotic Arrest (≥5%)) of 0.001 to 1 µM and an IC50 (RPEMYC^H2B-GFP cells) of 1 to 1000 nM. For the same molecule, the minimal effective concentration (HCT116 [1]) was 1 to 10 µM, the minimal effective concentration (Hela [2]) was 0.001 to 1 µM and the minimal effective concentration (MDA-MB-231 [3]) was 1 to 10 µM. It also gave a minimal effective concentration (NCI-H460 [4]) of 1 to 10 µM, a minimal effective concentration (NCI-H596 [5]) of 0.001 to 1 µM and a minimal effective concentration (T2 HCC [6]) of 0.001 to 1 µM. For the same molecule, the minimal effective concentration (NCI-H23 [7]) was 0.001 to 1 µM, the EC50 (HCT116 [8]) was 1000 to 10000 nM and the EC50 (Hela [9]) was 1 to 1000 nM. For the same molecule, the EC50 (MDA-MB-231 [10]) was 1 to 1000 nM, the EC50 (NCI-H23 [11]) was 1 to 1000 nM and the EC50 (NCI-H460 [12]) was over 30000 nM. It also gave an EC50 (NCI-H596 [13]) of 1 to 1000 nM, an EC50 (T2 HCC [14]) of 1 to 1000 nM and an EC50 (T98G) of 1000 to 10000 nM.
